For one data set, the target named is T1, recombinant Hsp90α (Homo sapiens, UniProt P07900).
T1 construct: purchased Assay Designs (Ann Arbor, MI, USA)
Description: Surface plasmon resonance binding to immobilized Hsp90α. As to the method: SPR analyses were carried out according to our previously published procedures, [23]. Briefly, SPR analyses were performed using a Biacore 3000 optical biosensor equipped with research−grade CM5 sensor chips (GE Healthcare). Using this platform, two separate recombinant Hsp90α surfaces, a BSA surface and one unmodified reference surface were prepared for simultaneous analyses. Proteins (100 µg mL^−1 in 10 mM CH3COONa, pH 5.0) were immobilized on individual sensor chip surfaces at a flow rate of 5 µL min^−1 using standard amine−coupling protocols to obtain densities of 8–12 kRU. Polyphenols, as well as 17-AAG and hardwickiic acid (HA), were dissolved in 100% DMSO to obtain 4 mM solutions, and diluted 1∶200 (v/v) in PBS (10 mM NaH2PO4, 150 mM NaCl, pH 7.4) to a final DMSO concentration of 0.5%. […] Binding experiments were performed at 25°C, using a flow rate of 50 µL min^−1, with 60 s monitoring of association and 300 s monitoring of dissociation. Simple interactions were suitably fitted to a single−site bimolecular interaction model (A+B = AB), yielding a single K D. Sensorgram elaborations were performed using the BIAevaluation software provided by GE Healthcare.
Putative interactions of different plant-derived phenolic compounds with Hsp90α were evaluated by a SPR-based approach.
A general note: Surface plasmon resonance follows binding to a sensor surface in real time, without labels.

The subject of data set [1] is HeLa cells. Nature of the data set: MTT cell viability, HeLa. The format is cell-based, human. To be noted: 24 h. As to the method: (§1) To ensure logarithmic growth, cells were subcultured every two days. As control cells, human peripheral blood mononuclear cells (PBMC) were isolated from buffy coats of healthy donors (kindly provided by the Blood Center of the Hospital of Battipaglia, Salerno, Italy) by using standard Ficoll−Hypaque gradients. […] Proliferation of PBMC was induced by phytohemagglutinin (PHA) (10 µg mL^−1). Tumor and PBMC cells were treated with different concentrations of geraniin or 17-AAG to evaluate their cytotoxic effects. Stock solutions of geraniin (50 mM in DMSO) and 17-AAG (10 mM in DMSO) were stored a −20°C in the dark and diluted just before addition to the sterile culture medium. In all the experiments, the final concentration of DMSO was 0.10% (v/v).
(§2) Jurkat (2×10^4/well) and HeLa (5000/well) cells were seeded in triplicate in 96 well−plates and incubated for 24 h in the absence or presence of different concentrations of geraniin (between 0,5 µM to 50 µM) or 17-AAG (between 0,5 nM to 10 µM).
(§3) The number of viable cells was determined by using a [3–4,5-dimethyldiazol-2-yl]-2,5-diphenyl tetrazolium bromide (MTT, Sigma-Aldrich) conversion assay, according to the method described by Mosmann. […] The absorbance was measured with a microplate reader (Titertek multiskan MCC7340, LabSystems, Vienna, VA, USA) equipped with a 620 nm filter. […]

Data set [2] deals with Jurkat cells. Nature of the data set: Cell cycle and hypodiploidy by flow cytometry (PI), Jurkat. Particulars: 24 h, geraniin 0.7 µM, 17-AAG 10 µM. The format is cell-based, human. As to the method:
(§4) Cell DNA content was measured by propidium iodide (PI) incorporation into permeabilized cells, as described by Nicoletti et al.. Briefly, the cells were harvested after geraniin or 17-AAG treatments were washed with cold PBS and incubated with a PI solution (0.1% sodium citrate, 0.1% Triton X-100 and 50 µg mL^−1 of prodium iodide, Sigma-Aldrich, 10 µg/ml Rnase A) for 30 min at room temperature. Data from 10.000 events per sample were collected by a FACScalibur flow cytometer (Becton Dickinson, San José, CA) and cellular debris was excluded from analysis by raising the forward scatter threshold. The percentage of cells in the sub G0/G1 phase, apoptotic fraction, was quantified using CellQuest software (Becton Dickinson). The distribution of cells in G0/G1, S, G2/M phases was determined using ModFit LT cell cycle analysis software (Becton Dickinson). Results were expressed as a mean ± SD of three experiments performed in triplicate.
(§5) Figure 6 Effects of geraniin and 17-AAG on cell cycle progression. Percentage of cell cycle stages was analyzed by flow cytometry, (A) PI-stained viable Jurkat cells treated with DMSO, 0.7 µM geraniin or 10 µM 17-AAG for 24 h.

The subject of data set [3] is Jurkat cells. Nature of the data set: MTT cell viability, Jurkat. In kind it is cell-based, human. Particulars: 24 h. As to the method: as §1, §2, §3
Data set [4] relates to HeLa cells. Description: Cell cycle and hypodiploidy by flow cytometry (PI), HeLa. In kind it is cell-based, human. Particulars: 24 h, geraniin 5 µM, 17-AAG 0.2 µM. As to the method: as §4, §5
(A flow cytometer gives signals particle by particle.)

The test system of data set [5] is PBMC (human Peripheral Blood Mononuclear Cells). Nature of the data set: Cytotoxicity in PHA-stimulated proliferating PBMC. The format is cell-based. To be noted: 24 h, trypan blue, only at high doses. As to the method: as §1, with “Tumor and PBMC cells were treated with different concentrations of geraniin or 17-AAG to evaluate their cytotoxic effects.” left out
The number of viable cells was determined by using a [3–4,5-dimethyldiazol-2-yl]-2,5-diphenyl tetrazolium bromide (MTT, Sigma-Aldrich) conversion assay, according to the method described by Mosmann. Briefly, following the treatment, 25 µL of MTT (5 mg/mL in PBS) was added and the cells were incubated for additional 3 h at 37°C. Thereafter, cells were lysed and suspended with 100 µL of buffer containing 50% (v/v) N,N-dimethylformamide, 20% SDS (pH 4.5). The absorbance was measured with a microplate reader (Titertek multiskan MCC7340, LabSystems, Vienna, VA, USA) equipped with a 620 nm filter. Cell population growth inhibition was tested by cytometric counting (trypan blu exclusion).

The subject of data set [6] is PHA-stimulated proliferating PBMC. Description: Hypodiploidy/necrosis by flow cytometry, PHA-stimulated PBMC. To be noted: untreated cells 1.5±0.8%. In kind it is cell-based, human. As to the method: Jurkat and HeLa (epithelial carcinoma) cells, obtained from Cell Bank in GMP-IST (Genova, Italy) were maintained in RPMI 1640 medium or Dulbecco’s modified Eagle medium (DMEM), respectively, supplemented with 10% (v/v) FBS, 2 mM L−glutamine and antibiotics (100 U mL^−1 penicillin, 100 µg mL^−1 streptomycin) purchased from Invitrogen (Carslbad, CA, USA), at 37°C in humidified atmosphere with 5% CO2. To ensure logarithmic growth, cells were subcultured every two days. As control cells, human peripheral blood mononuclear cells (PBMC) were isolated from buffy coats of healthy donors (kindly provided by the Blood Center of the Hospital of Battipaglia, Salerno, Italy) by using standard Ficoll−Hypaque gradients. Freshly isolated PBMC contained 92.8±3.1% live cells. Proliferation of PBMC was induced by phytohemagglutinin (PHA) (10 µg mL^−1). […]
Cell DNA content was measured by propidium iodide (PI) incorporation into permeabilized cells, as described by Nicoletti et al.. […] The percentage of cells in the sub G0/G1 phase, apoptotic fraction, was quantified using CellQuest software (Becton Dickinson). The distribution of cells in G0/G1, S, G2/M phases was determined using ModFit LT cell cycle analysis software (Becton Dickinson). Results were expressed as a mean ± SD of three experiments performed in triplicate.

The target in data set [7] is T2, Hsp90α chaperone activity (Homo sapiens, UniProt P07900).
T2 construct: purchased Assay Designs (Ann Arbor, MI, USA)
Nature of the data set: Citrate synthase thermal-induced aggregation assay (chaperone activity). The format is biochemical. Particulars: 0.075 µM CS, 0.075 µM Hsp90α, 0.3 µM ATP, four-fold molar excess (0.3 µM) compound, 43°C. As to the method:
Chaperone activity was evaluated by monitoring the thermal−induced aggregation of citrate synthase (CS) (0.075 µM), as reported elsewhere, in the absence or presence of a stoichiometric amount of Hsp90α and 0.3 µM ATP, and with or without a four−fold molar excess of each testing compound. Aggregation was initiated by unfolding CS incubating the protein in 40 mM HEPES–KOH, pH 7.5 at 43°C. Aggregation was monitored by measuring light scattering at right angles with the Perkin Elmer LS 55 fluorimeter in stirred and thermostatted quartz cells. Both the emission and excitation wavelengths were set at 500 nm, while the band–pass was 2 nm. Kinetics traces reported are the averages of two separate measurements.
Figure 3 Inhibition of Hsp90α activity. ATPase activity of the chaperone was evaluated in the presence of different concentrations of geraniin, 17-AAG and HA (A). Data are reported as the residual ATPase activity (%) compared to that observed for an untreated sample. Data are the mean of three independent experiments performed in triplicate and were analyzed by t test (HA vs testing compounds): The error bar represents the standard deviation of nine measurements, while * indicates significance at P<0.01. Aggregation kinetics of citrate synthase (CS) at 43°C determined by light scattering (B). […]

The mark [8] stands for this setting: SPR, immobilized Hsp90α, 25°C, single-site bimolecular model, 0.025-1 µM, read-out: KD.

These results are taken from PMC3774728, “Identification of the Plant Compound Geraniin as a Novel Hsp90 Inhibitor” (PLoS ONE, 2013).

SMILES strings stand for the structures. Like-named read-outs stand apart in the source and are kept apart here.

As usually defined, the Kd is the equilibrium constant for the complex coming apart. Turning to `O=c1c(O)c(-c2ccc(O)cc2)oc2cc(O)cc(O)c12` [Compound 2], the Kd on recombinant Hsp90α (setting [8]) turned out to be 4.83 ± 0.515 µM.
Still for that read-out and setting: the value for `O=c1c(O)c(-c2ccc(O)c(O)c2)oc2cc(O)ccc12` [Compound 4] was 5.33 ± 0.862 µM.
On to `COc1cc(-c2oc3cc(O)cc(O)c3c(=O)c2O)ccc1O` [Compound 5], for which the Kd at recombinant Hsp90α was 0.748 ± 0.045 µM.
Consider `CC(=O)Oc1cc(OC(C)=O)c2c(=O)c(OC(C)=O)c(-c3ccc(OC(C)=O)c(OC(C)=O)c3)oc2c1` [Compound 6], for which, at recombinant Hsp90α (setting [8]), the Kd amounted to 2.21 ± 0.351 µM.
In general, IC50 refers to the concentration at which inhibition is half-maximal. Read a high IC50 as lower potency. Turning to `C=CCNC1=C2C[C@@H](C)C[C@H](OC)[C@H](O)[C@@H](C)/C=C(\C)[C@H](OC(N)=O)[C@@H](OC)/C=C\C=C(/C)C(=O)NC(=CC1=O)C2=O` [Compound 17-AAG, 17-(allylamino)-17-demethoxygeldanamycin, reference compound], the IC50 in the data set on HeLa cells [1] came out at 0.2 ± 0.3 µM; in the data set on Jurkat cells [3], 9.6 ± 0.15 µM. The cell cycle arrest result in the data set on Jurkat cells [2] was “G1 and G2/M arrest”; in the data set on HeLa cells [4], “G1 and G2/M arrest”. The “percentage of cells with hypodiploid nuclei” value with Jurkat cells [2] was 6.05±0.4%; with HeLa cells [4] it was 11.6±0.5%. Also, the “cytotoxic effects in control PBMC” value in data set [5] is on record as “Minimal cytotoxic effects”. In addition, in data set [6], the levels of hypodiploidy/necrosis was found to be 1.8±0.6%.
On to `O=c1cc(-c2ccc(O)cc2)oc2cc(O)cc(O)c12` [Compound 19], for which the Kd on recombinant Hsp90α (setting [8]) worked out at 8.75 ± 0.735 µM.
Same read-out and setting: the value for `O=C1c2c(O)cc(O)cc2OC(c2ccc(O)c(O)c2)C1O` (stereo not shown) [Compound 34] was 1.82 ± 0.242 µM.
Regarding `C[C@@H]1CC[C@@]2(C)C(C(=O)O)=CCC[C@@H]2[C@@]1(C)CCc1ccoc1` [HA, hardwickiic acid, reference compound], the KD result at recombinant Hsp90α (SPR, immobilized Hsp90α, 25°C, single-site bimolecular model, 0.025-1 µM) is on record as “No binding”. In data set [7], the “effect on citrate synthase aggregation kinetics in the presence of Hsp90α” value was “did not perturb the CS+Hsp90α curve”.
